Data on 2 substances can be found in US20060211606A1, “Peptides” (priority 2005, published 2006).

For one series, the system named is C2C12 muscle cells. Briefly: C2C12 proliferation, Alamar Blue assay. Format: cell-based, mouse. The settings on record: 2000 cells per well; 2, 5, 50 and 100 ng/ml; medium with IGF-I 2 ng per ml; 36 hours. The procedure:
(A) DMGF and CMGF Peptides: C2C12 Cells were provided at 2000 cell/well, in a medium containing DMEM (1000 mg/L glucose), plus BSA(100 ug/ml), plus IGF-I (2 ng per ml) and incubated for 36 hours. Cell proliferation was then assessed using an Alamar Blue assay. […] Y-axis values are fluorescence (wavelength of excitation 535 nm, measurement at 590 nm; mean plus standard error) in an Alamar Blue assay.
The 8 amino acid peptides described in 1.3.1 above and referred to in FIG. 8A as DMGF and CMGF were tested for the ability to induce proliferation of C2C12 muscle cells at a density of 2000 cells per well in a medium containing DMEM (1000 mg/L glucose), BSA (10 ug/ml) and IGF-I (2 ng per ml). Concentrations of 2, 5, 50 and 100 ng/ml of DMGF and CMGF were tested (See the left-hand and middle sets of results in FIG. 8), along with 2, 5, 50 and 100 ng/ml IGF-I alone (See the right-hand set of results in FIG. 8). After 36 hours incubation, an Alamar Blue assay was used to assess the level of cell proliferation achieved. A control containing only the medium was also provided.

Series [1] deals with Human Skeletal Muscle Myoblasts (HSMM). The experiment in a line: HSMM proliferation, BrdU incorporation. In kind it is cell-based. The settings on record: 48 hours; A5 significant (P<0.1) at doses of 10 ng/ml and below; IGF-I alone 0.1, 10 and 100 ng/ml. As for the experimental part: (A) Peptide A5: HSMM cells at 500 cells/well. Cultivation was carried out for 24 hours in 10% FCS, followed by two washes in serum free medium, stimulation for 48 hours and then treatment with BrdU for 5 hours. Concentrations of 0.1, 1, 10, 100 and 500 ng/ml of peptide A5 were tested, along with 0.1, 1, 10 and 100 ng/ml IGF-I. BrdU incorporation was measured to assess the level of cell proliferation achieved. Controls containing medium only, no cells (BLK), background staining (BG) and 10% FBS were also provided. Values on the Y-axis are for fluorescence (absorbence at 370 nm; mean plus standard error across 4 wells). The first five columns relate to peptide A5 at concentrations of 0.1, 1, 10, 100 and 500 ng/ml. The next column relates to the control containing medium only. The next three relate to IGF-I (See Example 1.5) alone at concentrations of 100, 10 and 0.1 ng/ml. The next three relate to controls containing 10% FBS, background staining and no cells respectively. * means P<0.05 compared to medium only control.
(B) Peptide AS: HSMM cells at 500 cells/well. […] Concentrations of 0.1, 1, 10, 100 and 500 ng/ml of peptide AS in combination with 2 ng/ml IGF-I were tested, along with 0.1, 1, 10 and 100 ng/ml IGF-I. BrdU incorporation was measured to assess the level of cell proliferation achieved. […] Values on the Y-axis are for fluorescence (absorbence at 370 nm; mean plus standard error across 4 wells). […]
(A) Peptide AS: HSMM cells at 500 cells/well. […] Concentrations of 0.1, 1, 10, 100 and 500 ng/ml of peptide AS were tested, along with 0.1, 1, 10 and 100 ng/ml IGF-I. BrdU incorporation was measured to assess the level of cell proliferation achieved. […] Values on the Y-axis are for fluorescence (absorbence at 370 nm; mean plus standard error across 4 wells). […]
(B) Peptide A5: HSMM cells at 500 cells/well. […] Concentrations of 0.1, 1, 10, 100 and 500 ng/ml of peptide AS in combination with 2 ng/ml IGF-I were tested, along with 0.1, 1, 10 and 100 ng/ml IGF-I. BrdU incorporation was measured to assess the level of cell proliferation achieved. […]

A further series relates to CA1 hippocampal neurones. The experiment in a line: Gerbil model of brain ischemia, intact CA1 hippocampal neurones. Conditions: 25 μg injection, 7 days after the insult. Format: in vivo, Mongolian gerbils.
The test system of series [2] is tibialis anterior muscle of non-dystrophic mice. The experiment in a line: Intramuscular injection into tibialis anterior of non-dystrophic mice, muscle strength. Format: in vivo. Conditions: i.m. twice weekly 25 μl containing 17 μg, within a few weeks.
A further series relates to infarcted murine heart. Briefly: Murine myocardial infarction (LAD ligation), pressure/volume loops. In kind it is in vivo, mice. The settings on record: murine MI by LAD ligation; systemic administration. As for the experimental part:
All panels show pressure (mmHg) on the Y-axis and Relative Volume Units on the X-axis.
Additional experiments were carried out on mice. In these studies the MI was produced by ligating the left anterior descending (LAD) coronary artery of the murine heart. This causes dilation of the left ventricle, the progression of which leads to heart failure. […] Therefore there is considerable potential for treatment of patients immediately following a heart attack.

A short description of series [3]: Stability to proteolytic cleavage in fresh human plasma, Western blotting. The settings on record: fresh human plasma plus PBS, 37° C., 24 hours. A general note: A western blot detects proteins with antibodies after separation by electrophoresis.
Description: Western blotting was then used to assess the survival of each peptide over those time intervals: A=0 minutes; B=30 minutes; C=2 hours; D=24 hours.
Stability may be assessed in terms of half-life in human plasma or by any other suitable technique. In particular, stability can be measured by assessing peptides' susceptibility to proteolytic cleavage in fresh human plasma according to the technique of Example 5.1 below, in which the plasma was stored until used at −70° C., 10 μg of peptide was added to 2 ml of plasma, plus 7 ml of PBS and the mixture was incubated at 37° C. for different time intervals. Western blotting was then used to detect each peptide over those time intervals.
The plasma was stored until used at −70° C. 10 μg of peptide were added to 2 ml of plasma, plus 7 ml of PBS. This mixture was incubated at 37° C. for different time intervals.
Like biological activity, stability was scored on a scale of 0 to 3.
Stability was determined as the amount of the peptide that remained intact and bound to the specific antibody in the following way:

*1 amine or outer side, *2 acyl side, *3 side chain or, on linkers, in order; H or OH if unused. [ ]: non-standard residue; d: D form. PEG (Jeffamine) = not defined here; Suc = O=C(CCC(=O)[*:2])[*:1]

Description for CA1 hippocampal neurones: Other experiments were carried out using a Gerbil model of brain ischemia.
In the gerbil brain, bilateral ligation of the common carotid arteries invariably produces specific hippocampal lesions: in the CA1 region, pyramidal neurones start to die 3-4 days after ischemia.
Male Mongolian gerbils weighing 50-60 g were used. The ischemic insult was performed by 5 min. ligation of the common carotid arteries under halotane in N2O:O2 (70:30) anaesthesia in strictly controlled normothermic conditions as previously described (Domańiska-Janik et al., 2004). The cerebral blood flow was continuously monitored by laser Doppler flowmetry (Muro, Inc.). […] Sham operated animals were injected with the same dose of the peptide.
The animals were allowed a recovery period of one week, then were perfused with ice-cold 4% paraformaldehyde in PBS under pentobarbital anaesthesia. The histological evaluation was performed on paraffin-embedded and fixed, 10 mm-thick sections stained by hematoxylline/eosine. The extent of cell damage in the CA1 hippocampal region was quantified, under a Zeiss Axioscop 2, as the mean number of the persisted, intact neurons in the coronal sections. At least three defined 300 μm fields of the CA1 region were captured using a MC 10095 camera (Carl Zeiss Jena GmbH) and counted in a computer-assisted image analysis system (KS 300, Carl Zeiss Jena GmbH).

In the case of “IGF-I: IGF-I receptor binding domain encoded by Exons 3 and 4, common to all splice variants, approximately 70 amino acids [reference compound]”, the “proliferation of C2C12 cells (Alamar Blue fluorescence)” value with C2C12 muscle cells is given as “statistically different to the control value”. Also, the “proliferation of HSMM (BrdU incorporation), used in isolation” value in series [1] is listed as “no significant effect”. Also, in the series on CA1 hippocampal neurones, the “CA1 neurones as % of the control neuronal cell number (side not stated)” value is 15.8% and the “number of CA1 neurones left (side not stated)” value is recorded as 19.2±7.3 neurones.
Take “stabilised peptide: SEQ ID NO: 15 with D-Arginine at positions 14 and 15, N-terminus attached to PEG (Jeffamine) via succinic acid bridge, amidated at C-terminus ({PEG (Jeffamine)-Suc}-YQPPSTNKNTKSQ[dR][dR]KGSTFEEHK-NH2; reading uncertain)”: in series [2], the “increase in muscle strength” value is reported as “more than 25%”. The “strength and function of the heart by pressure/volume loops” value with infarcted murine heart is “markedly improved the strength and function of the heart”. Moreover, the “peptide detected by Western blotting after 24 hours” value in series [3] is on record as “detected in abundance”.
